Results published in patent publication US7906491B2 (Univisitair Medisch Centrum Utrecht, priority 2002, dated 2011).

Experiments:
human pancreatic β-cells = details: cited from earlier work
Ovcar3 cells = assay: Adhesion of Ovcar3 cells to poly-L-lysine (integrin-independent); assay type: cell-based; details: FIG. 8
Experimental: Upper panel: a βl integrin-blocking peptide containing the RGD sequence present in fibronectin inhibits 8-pCPT-2′-O-Me-cAMP-induced cell adhesion. Ovcar3 cells were pre-treated for 20 minutes with RGD-peptide (100 μM) where indicated, and seeded in wells with or without 8-pCPT-2′-O-Me-cAMP. Cells were allowed to adhere for 1 h. […] Ovcar3 cells were seeded onto poly-L-lysine-coated plates. At various time points, adherent cells were quantified.
24-well plates were coated overnight with 2 μg/ml fibronectin (Sigma, St. Louis, Mo., USA) in sodium bicarbonate buffer (Sigma, St. Louis, Mo., USA). […] Cells were centrifuged, counted and resuspended at 3×10^5 cells/ml in serum-free RPMI with 0.5% BSA. […] Adherent cells were lysed in luciferase lysis buffer (15% glycerol, 25 mM Tris-phosphate pH 7.8, 1% Triton X-100, 8 mM MgCl2, 1 mM DTT) at 4° C. for 30 min and units of luciferase activity were quantified with addition of equal volume of luciferase assay buffer (25 mM Tris-phosphate pH 7.8, 8 MM MgCl2, 1 mM DTT, 1 mM ATP pH 7, 1 mM luciferin) using a luminometer (Lumat LB9507; Berthold Technologies, Belgium). […] Specific adhesion (%) was determined (counts in cells bound/counts in total input×100) and plotted either directly or relative to the basal adhesion of HA vector-transfected cells. […]

Rap1 [1] = assay: Rap1 activation assay in Ovcar3 cells; assay type: cell-based
Experimental: A: 8-pCPT-2′-O-Me-cAMP stimulates cell adhesion. Upper panel: quantification of Ovcar3 cells adhering to fibronectin after treatment with increasing concentrations of 8-pCPT-2′-O-Me-cAMP. Lower panel: Ovcar3 cells were treated with increasing concentrations of 8-pCPT-2′-O-Me-cAMP for 15 min, cells were lysed and analyzed for activation of Rap1 (upper blot) and CREB (lower blot). Total Rap1 levels are shown (middle blot). B: 8-pCPT-2′-O-Me-cAMP increases the rate of cell adhesion. Upper panel: quantification of Ovcar3 cells adhering to fibronectin at various time points. Lower panel: cells were treated with 60 μM 8-pCPT-2′-O-Me-cAMP for the indicated times. Cell lysates were analyzed for activation of Rap1 (upper blot) and CREB (lower blot). Total levels of Rap1 in cell lysates are shown (middle blot). C: Ovcar3 cells were either pre-incubated at 37° C. for 30 min with the PKA inhibitor H-89 (10 μM) 30 min prior to seeding onto the wells (‘Short’) or H-89 was added 30 min prior to trypsinization and during the recovery period (‘Long’) and seeded onto wells in the absence or presence of 8-pCPT-2′-O-Me-cAMP (100 μM). Cells were allowed to adhere for 1 h. D, cAMP-induced adhesion to fibronectin is blocked by inhibitors of Rap1. Left panel: Ovcar3 cells were transiently transfected with either mock DNA, increasing concentrations of HA-Rap1GAP II (0.5, 1, 2 or 6 μg, respectively), HA-Rap1GAPI (6 μg) or HA-RBD of RalGDS (6 μg), respectively. Cells were treated with 8-Br-cAMP or 8-pCPT-2′-O-Me-cAMP and adhesion to fibronectin was determined. Right upper panel: luciferase counts of total input cells per well in the above experiment are shown. Right lower panel: expression of HA-Rap1GAPs in the above experiment is shown.
Rap activation assays were performed as described previously (16-18). […] Proteins were eluted with Laemmli sample buffer and analyzed by sodium dodecyl sulphate (SDS)-polyacrylamide gel electrophoresis and Western blotting using Rap1 antibodies. As a control, Rap1 levels in whole cell lysates were determined.

Rap1 [2] = assay: Rap1 activation assay (read-out for Epac) in NIH3T3-A14-Epac1 cells; assay type: cell-based; details: 15 min
Experimental: Upper panel: NIH3T3-A14-Epac1 cells were treated for 15 min with 8-Br-cAMP, and cell lysates were analyzed for activation of Rap1 and phosphorylation of CREB. Lower panel: NIH3T3-A14-Epac1 cells were treated in duplicate for 15 min with increasing concentrations of 8-pCPT-2′-O-Me-cAMP. Cells were lysed and equal amounts of cell lysate were incubated with precoupled GST-RalGDSRBD and Rap1 was assayed by immunoblotting with Rap1 antibody.
Therefore, 8-CPT-2′-O-Me-cAMP was tested in NIH3T3-A14-Epac1 cells for the activation of Epac, using Rap1 as a read-out, and of PKA, using phosphorylation of the common PKA substrate CREB 29 as a read-out.
NIH3T3-A14 cells, stably expressing Epac1, were grown in DMEM with 10% fetal calf serum and 2 μg/ml puromycin. NIH-OVCAR3 (Ovcar3) cells were maintained in RPMI with 10% fetal calf serum. Transient transfection of Ovcar3 cells was performed using the FuGENE 6 transfection reagent (Roche Diagnostics, Mannheim, Germany) according to the manufacturer's procedures, using 6 μg total DNA including a CMV-luciferase plasmid (0.2 μg).
Rap activation assays were performed as described previously (16-18). Briefly, cells were lysed in lysis buffer containing 10% glycerol, 1% Nonidet P-40, 50 mM Tris-Cl pH7.5, 200 mM NaCl, 2mM MgCl2, 1 μM leupeptin, 0.1 μM aprotinin, 5 mM NaF, 1 mM NaVO3. Lysates were clarified by centrifugation and incubated with GST-tagged RalGDS-RBD pre-coupled to glutathione beads to specifically pull down the GTP-bound forms of Rap1. Samples were incubated for 1 hr at 4° C. while tumbling. Beads were washed four times in lysis buffer, and the remaining fluid was removed with an insulin syringe. Proteins were eluted with Laemmli sample buffer and analyzed by sodium dodecyl sulphate (SDS)-polyacrylamide gel electrophoresis and Western blotting using Rap1 antibodies. As a control, Rap1 levels in whole cell lysates were determined.

EC50 (Rap1 [1]; Homo sapiens, OVCAR-3, 0.25 h, 15 min, FIG. 7A): ~30 µM
Structure (SMILES): CO[C@@H]1[C@@H]2OP(=O)(O)OC[C@H]2O[C@H]1n1c(Sc2ccc(Cl)cc2)nc2c(N)ncnc21 [Compound I-007, 8-(4-chloro-phenylthio)-2′-O-methyladenosine-3′,5′-cyclic monophosphate]
exocytosis (human pancreatic β-cells): induces exocytosis | mobilization of Ca2+ from intracellular Ca2+ stores via Epac-mediated CICR (human pancreatic β-cells): can induce mobilization of Ca^2+ | integrin-independent adhesion to poly-L-lysine (Ovcar3 cells): did not increase | Rap1 activation in time-course (Rap1 [1]; 60 μM, FIG. 7B): rapid and sustained Rap1 activation | activation of Rap1 (Rap1 [2]; 8-Br-cAMP 1 mM): induced the activation of Rap1 only | concentration at which Rap1 is already activated (Rap1 [2]; dose-response): 10 µM
